# In PMC7591920, “A protein tertiary structure mimetic modulator of the Hippo signalling pathway” (Nature Communications, 2020):
# Bridge positions count the residues as written; N and C are the ends. Square brackets hold non-standard residues; d marks the D form. Peptide text beside a SMILES is read from it. AEEA = NCCOCCOCC(=O)O
# Assays:
# mTEAD4 = target: T1, mTEAD4 (Mus musculus, UniProt Q62296); assay: SPR binding to immobilised mTEAD4; conditions: mTEAD4 amine-coupled on CM5, multi-cycle, steady-state fit 1:1 model, 10 mM HEPES 150 mM NaCl 0.05% Tween-20 pH 7.4, 0.3% DMSO, 20 °C, Fig. 1 values n = 1 replicate
# T1 construct: Mouse TEAD4(210–427) cDNA fused with a 6x His-tag and a 3C protease cleavage site; 6x His-tag; 3C protease cleavage site; made in house; host or cells: E. coli BL21 DE3 RIL(K+)
# T1 sequence (Q62296 210-427): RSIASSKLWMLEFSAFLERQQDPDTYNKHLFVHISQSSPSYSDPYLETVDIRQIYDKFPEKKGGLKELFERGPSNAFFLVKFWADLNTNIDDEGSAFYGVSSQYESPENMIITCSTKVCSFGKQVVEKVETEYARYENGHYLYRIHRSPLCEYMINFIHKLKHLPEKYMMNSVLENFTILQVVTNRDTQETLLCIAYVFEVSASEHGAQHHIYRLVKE
# Summary of the method: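 Proteins amine-coupled (NHS/EDC) to CM5 chips from 10 mM MES pH 6.4; running buffer 10 mM HEPES, 150 mM NaCl, 0.05% Tween-20, pH 7.4, 20 °C, 30 µL min^−1. Multi-cycle kinetics: seven threefold analyte dilutions from 30 µM, 45 s contact, 6-min dissociation, reference-surface subtracted.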
# GST-hTEAD1 = target: T2, GST-hTEAD1 (Homo sapiens, UniProt P28347); assay: SPR binding to immobilised GST-hTEAD1; conditions: GST-hTEAD1 amine-coupled on CM5, multi-cycle, steady-state fit 1:1 model, 10 mM HEPES 150 mM NaCl 0.05% Tween-20 pH 7.4, 0.3% DMSO, 20 °C, Fig. 1 values n = 1 replicate
# T2 construct: CDNA of hTEAD1(209–426) fused with an N-terminal GST tag; made in house; host or cells: Escherichia coli BL21 DE3 RIL(K+)
# T2 sequence (P28347 209-426): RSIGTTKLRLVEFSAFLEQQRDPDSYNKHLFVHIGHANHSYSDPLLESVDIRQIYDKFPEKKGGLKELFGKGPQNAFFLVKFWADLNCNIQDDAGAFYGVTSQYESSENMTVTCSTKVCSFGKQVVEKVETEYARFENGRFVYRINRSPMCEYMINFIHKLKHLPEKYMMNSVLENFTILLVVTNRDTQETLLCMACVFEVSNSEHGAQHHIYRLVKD
# Method: Sensor chips Series S CM5 (Research grade) were obtained from GE Healthcare. Prior to use, the sensor chips were equilibrated at room temperature for 15 min to prevent water condensation on the detector side of the sensor chip surface. A running buffer was prepared composed of 10 mM HEPES, 150 mM NaCl, and 0.05% (w/v) Tween-20, pH 7.4, and the system was equilibrated at 20 °C using a flow rate of 30 µL min^−1 after docking of the sensor chip. Ligand binding experiments have been performed applying the concept of multi-cycle kinetics. A contact time of 45 s was selected, followed by a 6-min dissociation phase to allow for complete dissociation of the analyte prior to the next cycle. […] Typically, seven concentrations of the analytes have been examined applying a threefold dilution pattern with 30 µM as top concentration. For the analysis, five running buffer blanks were injected to equilibrate the instrument. […] The carboxyl-dextran surface was activated for 7 min with 0.05 M NHS and 0.2 M EDC, followed by an injection of the proteins in 10 mM MES pH 6.4 at a concentration of 30–50 µg mL^−1. […] This was followed by a deactivation of the residual esters by injecting a solution of 0.5 M ethanolamine pH 8.0 for 7 min before engaging in ligand binding experiments. Reference surfaces were prepared accordingly, omitting the injection of protein over the activated reference surface.
# rat heart cells = assay: Cell toxicity assessment on rat heart cells in culture; conditions: c(peptide) = 10 µM
# Method: whole heart cells monitored by fluorescence microscopy after 90 minutes treatments (scale bar: 25 µm), number of […]
# 4E as well as control compounds (SB203580, CHIR99021) on rat heart cells in culture (c(peptide) = 10 µM). Number of independent biological replicates: n = 6, error bars = SEM. […]
# cytometry analysis of live cells after 90 min incubation at 5 µM: Representative histogram plot, (-) DMSO control). Source data are provided as a Source Data file.
# (1 picture or pasted object on this page, not shown here)
# GST-hTEAD1 / biotin-VGL4 = target: T3, GST-hTEAD1 / biotin-VGL4 (Homo sapiens, UniProt P28347); assay: Competition pull-down of GST-hTEAD1 with immobilised biotin-VGL4; assay type: biochemical; conditions: GST-hTEAD1 1 µM
# T3 construct: CDNA of hTEAD1(209–426) fused with an N-terminal GST tag; made in house; host or cells: Escherichia coli BL21 DE3 RIL(K+); bait peptide synthetic
# T3 sequence (P28347 209-426): as above
# Method: Beads were then extensively washed with the incubation buffer followed by protein elution after boiling the beads at 95 °C for 10 min in 25 µL of SDS loading buffer. SDS PAGE was performed using standard methods and the gel was visualized after Coomassie staining with a Li-COR Fc Imager.
# [1] = system: primary juvenile (P5–P6) rat cardiomyocytes; assay: Cell cycle activity assay (Ki67/αActinin) in juvenile rat cardiomyocytes; assay type: cell-based; conditions: for Dose-dependent cell cycle stimulation, MEAN: 4-day treatment, relative to DMSO (100), mean of n = 3
# Method: One day after seeding, the cells were treated with test compounds of interest. Treatments were applied with an ECHO 520 acoustic dispenser (Labcyte) and medium was added to the wells. Four days after treatment, the cells were fixed with 4% formaldehyde (Roth) and immunostained in 0.2% Triton-X100 (Roth) in PBS (Gibco) supplemented with 5% FBS. […] Samples were then imaged and analysed on an ImageXpress XL automated microscope (Molecular Devices). Data are depicted as means ± SEM.
# RKO cells [2] = assay: Wound closure assay; assay type: cell-based
# Method: Ca. 100,000 RKO cells were seeded per well in a transparent ImageLock 96-well plate (#4379, Essen Bioscience) and treated with the samples the next day. Wound Healing Assay was performed using the IncuCyte® ZOOM system and the WoundMaker™ device (both Essen Bioscience). The scratch was performed according to manufacturer’s protocol and images were acquired every 2 h. Image-based analysis of wound closure was conducted using the IncuCyte ZOOM 2016B software (Essen Bioscience). Confluency within the wound area was normalized to the confluency at the time of scratch preparation and plotted using GraphPad Prism 6.
# RKO cells [3] = assay: Sub-cellular (cytoplasmic, nuclear) peptide concentration in RKO cells by UPLC-MS; conditions: for Sub-cellular drug content, Cytoplasm / Sub-cellular drug content, Cytoplasm, Measured concentration / Sub-cellular drug content, Nuclear / Sub-cellular drug content, Nuclear, Measured concentration: n = 2
# Method: Peptides were incubated in RKO cells (ATCC, #CRL-2577) as follows: Experiment 1: RKO cells were incubated in 25 µM compound for 90 min and 24 h. Experiment 2: RKO cells were incubated in 25 µM for 30 min or 72 h. Following peptide incubation, the cells were washed twice with PBS, trypsinized and pelleted. The pellets were lysed in RIPA buffer (Perkin Elmer) for total lysis, or CelLytic NuCLEAR Extraction Kit (SIGMA) for subcellular fractionation. Total protein quantification BCA (Pierce) was performed prior to MS analysis to normalize sample data. Total and fractionated cell lysates were analysed by quantitative UPLC-MS utilizing a Waters Xevo TQ-XS (WBA0259) and an Acquity UPLC system from Waters consisting of Sample Manager (M16UFL953M), Acquity PDA (F17UPD457A), Column Oven (E17CMP703G) and Binary Solvent Manager (E17BUR621G). […] Chromatograms of the samples were treated similarly, and by linear regression (1/x) an in-cell concentration was established in the re-suspended cell lysate using the Waters MassLynx TargetLynx^TM product.
# [4] = 25 µM compound, 90 minutes, fractionation, UPLC-MS
# [5] = 25 µM compound, 24 hours, fractionation, UPLC-MS
smiles,measurement,setting,value
CC[C@H](C)[C@@H]1NC(=O)[C@H](CCC(N)=O)NC(=O)[C@H](CC(C)C)NC(=O)[C@H](Cc2c[nH]c3ccccc23)NC(=O)[C@H]([C@@H](C)O)NC(=O)[C@H](CC(=O)O)NC(=O)CNC(=O)[C@H](CC(C)C)NC(=O)[C@H](C)NC(=O)[C@H](CCCCN)NC(=O)[C@H](C)NC(=O)[C@H](Cc2ccccc2)NC(=O)[C@H](Cc2c[nH]cn2)NC(=O)[C@H](CC(=O)O)NC(=O)[C@@H](NC(=O)[C@@H](NC(=O)[C@H](CO)NC(=O)COCCOCCNC(=O)[C@H](CCC(N)=O)NC(=O)[C@@H]2CCCN2C(=O)[C@H](CCCNC(=N)N)NC(=O)[C@H](CCCNC(=N)N)NC(=O)[C@H](CCCNC(=N)N)NC(=O)[C@H](CCC(N)=O)NC(=O)[C@H](CCCNC(=N)N)NC(=O)[C@H](CCCNC(=N)N)NC(=O)[C@H](CCCCN)NC(=O)[C@H](CCCCN)NC(=O)[C@H](CCCNC(=N)N)NC(=O)CNC(C)=O)C(C)C)CCC(=O)NCCCC[C@@H](C(=O)N[C@@H](C)C(=O)N[C@@H](C)C(N)=O)NC1=O [compound 7] (Ac-GRKKRRQRRRPQ[AEEA]SVEDHFAKALGDTWLQIKAA-NH2; lactam 16-31),Kd,mTEAD4,1500 ± 1000 nM
same,Kd,GST-hTEAD1,830 ± 780 nM
same,Total cell number (% DMSO control),rat heart cells; raw data replicate 1,121.364 % DMSO control
same,Total cell number (% DMSO control),rat heart cells; raw data replicate 2,169.336 % DMSO control
same,Total cell number (% DMSO control),rat heart cells; raw data replicate 3,227.316 % DMSO control
same,Total cell number (% DMSO control),rat heart cells; raw data replicate 4,141.087 % DMSO control
same,Total cell number (% DMSO control),rat heart cells; raw data replicate 5,122.138 % DMSO control
same,Total cell number (% DMSO control),rat heart cells; raw data replicate 6,106.984 % DMSO control
same,required concentration for VGL4 competition in the pull-down assay,"GST-hTEAD1 / biotin-VGL4; immobilised biotin-VGL4, 2.5 h",ca. 100 µM
same,Competition with TEAD–VGL4 complex formation (pull-down),"GST-hTEAD1 / biotin-VGL4; peptide 50 and 200 µM, biotin-VGL4 on streptavidin beads, 2.5 h, SDS-PAGE, n = 1",compete with TEAD–VGL4 complex formation
same,"Dose-dependent cell cycle stimulation, MEAN",[1]; 1 mM (so in the source),106.813
same,"Dose-dependent cell cycle stimulation, MEAN",[1]; 5 mM (so in the source),131.729
same,"Dose-dependent cell cycle stimulation, MEAN",[1]; 10 mM (so in the source),172.672
same,Effect on cardiomyocyte cell cycle activity,"[1]; P5–P6 rat heart cells, 4-days incubation, Ki67/αActinin double-positive cells",stimulates cell cycle activity to the same extent as positive controls
same,"Cell cycle activity, MEAN","[1]; c = 10 µM, 4 days, relative to DMSO-treated cells (100), mean of N = 6",148.037
same,Effect on wound closure,"RKO cells [2]; c = 30 µM, 48 h treatment",considerably increased wound closure
same,Wound closure (%),"RKO cells [2]; dose-dependent, 1 µM peptide 7, mean of n = 3",53.07%
same,Wound closure (%),"RKO cells [2]; dose-dependent, 5 µM peptide 7, mean of n = 3",61.51%
same,Wound closure (%),"RKO cells [2]; dose-dependent, 10 µM peptide 7, mean of n = 3",67.72%
same,Wound closure (%),"RKO cells [2]; dose-dependent, 30 µM peptide 7, mean of n = 3",76.06%
same,Wound closure (%),"RKO cells [2]; time-dependent, 12 hours, mean of n = 3",26.59%
same,Wound closure (%),"RKO cells [2]; time-dependent, 24 hours, mean of n = 3",49.56%
same,Wound closure (%),"RKO cells [2]; time-dependent, 36 hours, mean of n = 3",65.47%
same,Wound closure (%),"RKO cells [2]; time-dependent, 48 hours, mean of n = 3",75.27%
same,"Sub-cellular drug content, Cytoplasm",RKO cells [3]; [4],0.07968 nmol
same,"Sub-cellular drug content, Cytoplasm, Measured concentration",RKO cells [3]; [4],265.5865 nM
same,"Sub-cellular drug content, Nuclear",RKO cells [3]; [4],0.1853 nmol
same,"Sub-cellular drug content, Nuclear, Measured concentration",RKO cells [3]; [4],123.5385 ± 6.5745 nM
same,"Sub-cellular drug content, Cytoplasm",RKO cells [3]; [5],0.04677 nmol
same,"Sub-cellular drug content, Cytoplasm, Measured concentration",RKO cells [3]; [5],155.914 ± 40.331 nM
same,"Sub-cellular drug content, Nuclear",RKO cells [3]; [5],0.06065 nmol
same,"Sub-cellular drug content, Nuclear, Measured concentration",RKO cells [3]; [5],202.161 ± 23.082 nM
same,loss of cytosolic concentration between 90 min and 24 h incubation,"RKO cells [3]; 25 µM, authors' response in peer review file",47%
same,pMol/mg,"RKO cells [3]; Cytoplasm, 25 µM compound, 90 minutes (1.5 hrs), replicate 1",104.1 pMol/mg
same,pMol/mg,"RKO cells [3]; Cytoplasm, 25 µM compound, 90 minutes (1.5 hrs), replicate 2",74.3 pMol/mg
same,pMol/mg,"RKO cells [3]; Cytoplasm, 25 µM compound, 24 hours, replicate 1",73.3 pMol/mg
same,"pMol/mg, Mean","RKO cells [3]; Nuclear, 25 µM compound, 90 minutes (1.5 hrs), mean of 2 replicates",231.15 pMol/mg
same,pMol/mg,"RKO cells [3]; Nuclear, 25 µM compound, 24 hours, replicate 1",336.5 pMol/mg
same,Cytoplasmic concentration of peptide,"RKO cells [3]; cytoplasmic fraction, UPLC-MS, mean of n = 2",89.2 pMols/mg of protein
same,Nuclear concentration of peptide,"RKO cells [3]; nuclear fraction, UPLC-MS, mean of n = 2",209 pMols/mg of protein
same,Detection in cytoplasmic and nuclear fractions,"RKO cells [3]; unlabelled peptide 25 µM, 90 min and 24 h, fractionation, UPLC-MS",found in both compartments
